≈ marks a conversion by molar mass, not a printed value.
Columns and labels:
Escherichia coli [1] = assay: Antibacterial activity against efflux-defective Escherichia coli N43 deficit of AcrAB-TolC assessed as inhibition of bacterial growth; type: functional
Haemophilus influenzae = assay: Antibacterial activity against Haemophilus influenzae ATCC 49247 assessed as inhibition of bacterial growth; type: functional
[2] = biological target: T1, tRNA (guanine-N(1)-)-methyltransferase (Escherichia coli (strain K12), UniProt P0A873); assay: Inhibition of Escherichia coli TrmD
T1 sequence (P0A873 whole entry): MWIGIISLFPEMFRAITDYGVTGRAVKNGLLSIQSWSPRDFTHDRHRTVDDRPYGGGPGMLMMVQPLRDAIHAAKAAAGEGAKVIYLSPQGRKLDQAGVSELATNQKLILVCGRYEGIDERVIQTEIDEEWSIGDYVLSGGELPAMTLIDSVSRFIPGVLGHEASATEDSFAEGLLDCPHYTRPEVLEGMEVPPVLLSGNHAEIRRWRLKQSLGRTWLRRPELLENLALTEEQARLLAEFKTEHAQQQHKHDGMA

Escherichia coli [3] = assay: Antibacterial activity against efflux-defective Escherichia coli N43 deficit of AcrAB-TolC assessed as inhibition of bacterial growth in presence of 4 ug/ml membrane-permeabilising agent, polymyxin B; type: functional
[4] = Lipophilicity, logD of the compound at pH 7.4; type: physicochemical; details: buffer
Neisseria gonorrhoeae = assay: Antibacterial activity against Neisseria gonorrhoeae ATCC 49226 assessed as inhibition of bacterial growth; type: functional
Yersinia pestis = assay: Antibacterial activity against Yersinia pestis CO92 assessed as inhibition of bacterial growth; type: functional
Streptococcus pneumoniae = assay: Antibacterial activity against Streptococcus pneumoniae ATCC 49619 assessed as inhibition of bacterial growth; type: functional
Pseudomonas aeruginosa = assay: Antibacterial activity against Pseudomonas aeruginosa ATCC 27853 assessed as inhibition of bacterial growth; type: functional
Francisella tularensis = assay: Antibacterial activity against Francisella tularensis-Schu S4 assessed as inhibition of bacterial growth; type: functional
Moraxella catarrhalis = assay: Antibacterial activity against Moraxella catarrhalis ATCC 25240 assessed as inhibition of bacterial growth; type: functional
Acinetobacter baumannii = assay: Antibacterial activity against Acinetobacter baumannii NCTC 13420 assessed as inhibition of bacterial growth; type: functional
Bacillus subtilis = assay: Antibacterial activity against Bacillus subtilis ATCC 6633 assessed as inhibition of bacterial growth; type: functional
Coxiella burnetii = assay: Antibacterial activity against Coxiella burnetii Nine Mile assessed as inhibition of bacterial growth; type: functional
[5] = Cytotoxicity against human HepG2 cells; type: toxicity, cell-based
[6] = test system: Staphylococcus epidermidis; assay: Antibacterial activity against Staphylococcus epidermidis ATCC 12228 assessed as inhibition of bacterial growth; type: functional
Enterococcus faecium = assay: Antibacterial activity against Enterococcus faecium ATCC 19434 assessed as inhibition of bacterial growth; type: functional
Burkholderia cepacia = assay: Antibacterial activity against Burkholderia cepacia ATCC 25416 assessed as inhibition of bacterial growth; type: functional
[7] = biological target: T1, tRNA (guanine-N(1)-)-methyltransferase; assay: Binding affinity to Escherichia coli TrmD by surface plasmon resonance assay
Escherichia coli [8] = assay: Antibacterial activity against Escherichia coli W4573 harboring functional AcrAB-TolC assessed as inhibition of bacterial growth

## CN(C(=O)Cn1c(C2CC2)cc2cc(C(N)=O)cnc21)C1CCNCC1
Escherichia coli [1]
  MIC: > 256 µg/mL
Haemophilus influenzae
  MIC: > 1020 µg/mL
[2]
  IC50: 0.037 µM
Escherichia coli [3]
  MIC: > 512 µg/mL
[4]
  logD: -0.2

## CN1CCN(C(=O)Cn2c(C3CC3)cc3cc(C(N)=O)cnc32)CC1
Escherichia coli [1]
  MIC: > 512 µg/mL
Haemophilus influenzae
  MIC: > 1020 µg/mL
[2]
  IC50: 0.038 µM
Escherichia coli [3]
  MIC: > 512 µg/mL
[4]
  logD: 2.7

## CN(C(=O)Cn1ccc2cc(C(N)=O)cnc21)C1CCNCC1
[2]
  IC50: 0.83 µM

## CC(C)(Nc1ccc(C(N)=O)cn1)c1ccccc1
[2]
  IC50: 2.1 µM

## NC(=O)c1ccc(NCc2cccc(N3CCNC(C(F)(F)F)C3)c2)nc1 (centres undefined)
[2]
  IC50: > 10 µM

## NC(=O)c1cnc2c(c1)cc(C1CC1)n2CC(=O)N1CCNCC1
Neisseria gonorrhoeae
  MIC: > 256 µg/mL
Escherichia coli [1]
  MIC: > 1020 µg/mL
Yersinia pestis
  MIC: 256 µg/mL (≈ 782 µM)
Streptococcus pneumoniae
  MIC: > 256 µg/mL
Pseudomonas aeruginosa
  MIC: > 256 µg/mL
Francisella tularensis
  MIC: > 256 µg/mL
Moraxella catarrhalis
  MIC: > 256 µg/mL
Acinetobacter baumannii
  MIC: > 256 µg/mL
Bacillus subtilis
  MIC: > 256 µg/mL
Coxiella burnetii
  MIC: > 64 µg/mL
[5]
  CC50: > 256 µg/mL
[6]
  MIC: > 256 µg/mL
[2]
  IC50: 0.013 µM
Escherichia coli [3]
  MIC: > 1020 µg/mL
Enterococcus faecium
  MIC: > 256 µg/mL
Burkholderia cepacia
  MIC: > 256 µg/mL
[4]
  logD: -0.1

## NCc1ccc(Cn2ccc3cc(C(N)=O)cnc32)cc1
[2]
  IC50: 1.9 µM

## CN(C(=O)Cn1c(C2CC2)cc2cc(C(N)=O)cnc21)[C@@H]1C[C@H]2CC[C@@H](C1)N2
Escherichia coli [1]
  MIC: > 512 µg/mL
Haemophilus influenzae
  MIC: > 512 µg/mL
[2]
  IC50: 0.036 µM
Escherichia coli [3]
  MIC: > 1020 µg/mL
[4]
  logD: 0.2

## NC(=O)c1ccc(N)cn1
[2]
  IC50: > 1000 µM

## NC(=O)c1cnc2c(ccn2CC(=O)N2CCNCC2)c1
[2]
  IC50: 0.8 µM

## NCc1ccc(CNc2ccc(C(N)=O)cn2)cc1
[2]
  IC50: 2.3 µM

## CN1CCC(N(C)C(=O)Cn2c(C3CC3)cc3cc(C(N)=O)cnc32)CC1
Escherichia coli [1]
  MIC: > 512 µg/mL
Haemophilus influenzae
  MIC: > 256 µg/mL
[2]
  IC50: 0.039 µM
Escherichia coli [3]
  MIC: > 1020 µg/mL

## CC(C)(CNc1ccc(C(N)=O)cn1)c1ccccc1
Neisseria gonorrhoeae
  MIC: 128 µg/mL (≈ 475 µM)
Escherichia coli [1]
  MIC: 512 µg/mL (≈ 1900 µM)
Haemophilus influenzae
  MIC: 512 µg/mL (≈ 1900 µM)
Yersinia pestis
  MIC: 256 µg/mL (≈ 950 µM)
Streptococcus pneumoniae
  MIC: > 256 µg/mL
Pseudomonas aeruginosa
  MIC: > 256 µg/mL
Francisella tularensis
  MIC: > 256 µg/mL
Moraxella catarrhalis
  MIC: 128 µg/mL (≈ 475 µM)
Acinetobacter baumannii
  MIC: > 256 µg/mL
Bacillus subtilis
  MIC: > 256 µg/mL
Coxiella burnetii
  MIC: > 64 µg/mL
[5]
  CC50: > 128 µg/mL
[6]
  MIC: > 256 µg/mL
[2]
  IC50: 0.027 µM
Escherichia coli [3]
  MIC: 256 µg/mL
Enterococcus faecium
  MIC: > 256 µg/mL
Burkholderia cepacia
  MIC: > 256 µg/mL
[4]
  logD: 3

## NC(=O)c1ccc(NC2CCCC2)nc1
[2]
  IC50: 0.11 µM

## CNC(=O)Cn1ccc2cc(C(N)=O)cnc21
[2]
  IC50: 64 µM

## C[C@@H](Nc1ccc(C(N)=O)cn1)c1ccccc1
[2]
  IC50: 48 µM

## C[C@H](Nc1ccc(C(N)=O)cn1)c1ccccc1
[2]
  IC50: 1.3 µM

## NCc1ccc(Cn2c(C3CC3)cc3cc(C(N)=O)cnc32)cc1
Escherichia coli [1]
  MIC: 1020 µg/mL (≈ 3200 µM)
Haemophilus influenzae
  MIC: > 1020 µg/mL
[2]
  IC50: 0.31 µM
Escherichia coli [3]
  MIC: 1020 µg/mL
[4]
  logD: 1.4

## OCc1cc(-c2cccs2)[nH]n1
[7]
  Kd: 260 µM
[2]
  IC50: 320 µM

## NCc1cccc(CNc2ccc(C(N)=O)cn2)c1
[2]
  IC50: 1.4 µM

## NC(=O)c1cnc2c(ccn2CC(=O)NC2CNC2)c1
[2]
  IC50: 4.5 µM

## CC[C@H]1OC(=O)[C@H](C)[C@@H](O[C@H]2C[C@@](C)(OC)[C@@H](O)[C@H](C)O2)[C@H](C)[C@@H](O[C@@H]2O[C@H](C)C[C@H](N(C)C)[C@H]2O)[C@](C)(O)C[C@@H](C)C(=O)[C@H](C)[C@@H](O)[C@]1(C)O [ERYTHROMYCIN]
Escherichia coli [1]
  MIC: 8 µg/mL (≈ 10.9 µM)
Haemophilus influenzae
  MIC: 4 µg/mL (≈ 5.45 µM)
Escherichia coli [3]
  MIC: 0.5 µg/mL
Escherichia coli [8]
  MIC: 64 µg/mL (≈ 87.2 µM)

## NC(=O)c1cnc2c(c1)cc(C1CC1)n2CC(=O)N1CCNC(=O)C1
Escherichia coli [1]
  MIC: > 1020 µg/mL
Haemophilus influenzae
  MIC: > 512 µg/mL
[2]
  IC50: 0.12 µM
Escherichia coli [3]
  MIC: > 1020 µg/mL

## NC(=O)c1ccc(N)nc1 [6-AMINONICOTINAMIDE]
[7]
  Kd: 1.3 µM
[2]
  IC50: 26 µM

## CC(C)(CNc1ccc(C(N)=O)cn1)c1cccc(NC2CNC2)c1
Escherichia coli [1]
  MIC: > 1020 µg/mL
Haemophilus influenzae
  MIC: > 512 µg/mL
[2]
  IC50: 0.13 µM
Escherichia coli [3]
  MIC: > 1020 µg/mL
[4]
  logD: 1

## NC(=O)c1ccc2[nH]ccc2c1
[2]
  IC50: 160 µM

## CC(C)(CNc1ccc(C(N)=O)cn1)c1cccc(N2CCNCC2)c1
Escherichia coli [1]
  MIC: 1020 µg/mL (≈ 2900 µM)
Haemophilus influenzae
  MIC: > 1020 µg/mL
[2]
  IC50: 0.05 µM
Escherichia coli [3]
  MIC: 1020 µg/mL
[4]
  logD: 1.6

## NC(=O)c1ccc(NCc2cccc(N3CCNCC3)c2)nc1
Escherichia coli [1]
  MIC: > 1020 µg/mL
Haemophilus influenzae
  MIC: 1020 µg/mL (≈ 3290 µM)
[2]
  IC50: 0.31 µM
Escherichia coli [3]
  MIC: > 1020 µg/mL
[4]
  logD: 1

## NC(=O)c1cnc2c(ccn2CC(=O)NC2CCNCC2)c1
[2]
  IC50: 6.5 µM

## CC(C)(C)CNc1ccc(C(N)=O)cn1
[2]
  IC50: 0.14 µM

## NC(=O)c1ccc(NC2(c3ccccc3)CC2)nc1
[2]
  IC50: 0.27 µM

## NC(=O)c1ccc2nc(N)sc2c1
[7]
  Kd: 420 µM
[2]
  IC50: 150 µM

## NC(=O)c1ccc(N)cc1
[2]
  IC50: 670 µM

## NC(=O)c1ccc(NCc2ccccc2)nc1
[2]
  IC50: 3.2 µM

## CC(C)[C@H]1CN(C(=O)Cn2c(C3CC3)cc3cc(C(N)=O)cnc32)CCN1
Escherichia coli [1]
  MIC: > 1020 µg/mL
Haemophilus influenzae
  MIC: 1020 µg/mL (≈ 2770 µM)
[2]
  IC50: 0.096 µM
Escherichia coli [3]
  MIC: > 1020 µg/mL

## NCc1ccc(Cn2ccc3cc(C(N)=O)ccc32)cc1
[2]
  IC50: 13 µM

## CC(C)(CNc1ccc(C(N)=O)cn1)c1cccc(CN)c1
Neisseria gonorrhoeae
  MIC: > 256 µg/mL
Escherichia coli [1]
  MIC: > 1020 µg/mL
Haemophilus influenzae
  MIC: 256 µg/mL (≈ 858 µM)
Yersinia pestis
  MIC: 256 µg/mL (≈ 858 µM)
Streptococcus pneumoniae
  MIC: > 256 µg/mL
Pseudomonas aeruginosa
  MIC: > 256 µg/mL
Francisella tularensis
  MIC: > 256 µg/mL
Moraxella catarrhalis
  MIC: > 256 µg/mL
Acinetobacter baumannii
  MIC: > 256 µg/mL
Bacillus subtilis
  MIC: > 256 µg/mL
Coxiella burnetii
  MIC: > 64 µg/mL
[5]
  CC50: > 256 µg/mL
[6]
  MIC: > 256 µg/mL
[2]
  IC50: 0.009 µM
Escherichia coli [3]
  MIC: > 1020 µg/mL
Enterococcus faecium
  MIC: > 256 µg/mL
Burkholderia cepacia
  MIC: > 256 µg/mL

## NC(=O)c1ccc(NC2(c3cccc(N4CCNCC4)c3)CC2)nc1
Escherichia coli [1]
  MIC: > 1020 µg/mL
Haemophilus influenzae
  MIC: 1020 µg/mL (≈ 3030 µM)
[2]
  IC50: 0.011 µM
Escherichia coli [3]
  MIC: > 1020 µg/mL
[4]
  logD: 1.4

Source: ChEMBL document CHEMBL5247663, “Evaluating the druggability of TrmD, a potential antibacterial target, through design and microbiological profiling of a series of potent TrmD inhibitors” (Bioorg Med Chem Lett, 2023)
